These results are taken from patent US20220169628A1 (University of Florida Research Foundation, Incorporated, priority 2019, published 2022).

One experiment concerns MOLT-4 cells. Briefly: Cell viability assay, MTS, 48 h, MOLT-4. It is filed as cell-based. Particulars: 48 hours, read-out: IC50 (48 hours) MOLT-4. Here is the method: (§1) Acute lymphoblastic leukemia cells (MOLT-4 and RS4; 11) or small cell lung cancer (NCI-H146 or simply H146) were incubated with increasing concentrations of Bcl-xL degraders for 48 h. Cell viability was measured by tetrazolium-based MTS assay.

A further experiment deals with RS4;11 cells. Briefly: Cell viability assay, MTS, 48 h, RS4;11. It is filed as cell-based. The note with it: 48 hours, read-out: IC50 (48 hours) RS4;11. On the procedure:
as §1

Where two headings read alike, the source gives them in different places. Bounds are passed on as bounds.

Take `Cc1ncsc1-c1ccc([C@H](C)NC(=O)[C@@H]2C[C@@H](O)CN2C(=O)[C@@H](NC(=O)CCCCCCC(=O)NCCN(C)CC2(C)CCC(c3ccc(Cl)cc3)=C(CN3CCN(c4ccc(C(=O)NS(=O)(=O)c5ccc(N[C@H](CCN6CCOCC6)CSc6ccccc6)c(S(=O)(=O)C(F)(F)F)c5)cc4)CC3)C2)C(C)(C)C)cc1` (stereo partly drawn) [compound 61, N1-(2-(((4′-chloro-4-methyl-6-((4-(4-(((4-(((R)-4-morpholino-1-(phenylthio)butan-2-yl)amino)-3-((trifluoromethyl)sulfonyl)phenyl)sulfonyl)carbamoyl)phenyl)piperazin-1-yl)methyl)-2,3,4,5-tetrahydro-[1,1′-biphenyl]-4-yl)methyl)(methyl)amino)ethyl)-N8-((S)-1-((2S,4R)-4-hydroxy-2-(((S)-1-(4-(4-methylthiazol-5-yl)phenyl)ethyl)carbamoyl)pyrrolidin-1-yl)-3,3-dimethyl-1-oxobutan-2-yl)octanediamide]: the IC50 fell in the range of 150 to 500 nM with MOLT-4 cells (Homo sapiens, MOLT-4, 48 h) and 50 to 150 nM in the experiment with RS4;11 cells (Homo sapiens, RS4-11, 48 h).

Turning to `Cc1ncsc1-c1ccc([C@H](C)NC(=O)[C@@H]2C[C@@H](O)CN2C(=O)[C@@H](NC(=O)CCCC(=O)N2CCN(CC3(C)CCC(c4ccc(Cl)cc4)=C(CN4CCN(c5ccc(C(=O)NS(=O)(=O)c6ccc(N[C@H](CCN7CCOCC7)CSc7ccccc7)c(S(=O)(=O)C(F)(F)F)c6)cc5)CC4)C3)CC2)C(C)(C)C)cc1` (stereo partly drawn) [degrader #14, (2S,4R)-1-((2S)-2-(5-(4-((4′-chloro-4-methyl-6-((4-(4-(((4-(((R)-4-morpholino-1-(phenylthio)butan-2-yl)amino)-3-((trifluoromethyl)sulfonyl)phenyl)sulfonyl)carbamoyl)phenyl)piperazin-1-yl)methyl)-2,3,4,5-tetrahydro-[1,1′-biphenyl]-4-yl)methyl)piperazin-1-yl)-5-oxopentanamido)-3,3-dimethylbutanoyl)-4-hydroxy-N—((S)-1-(4-(4-methylthiazol-5-yl)phenyl)ethyl)pyrrolidine-2-carboxamide], the IC50 in the experiment on MOLT-4 cells (Homo sapiens, MOLT-4, 48 h) lay in the range of 150 to 500 nM; in the experiment on RS4;11 cells (Homo sapiens, RS4-11, 48 h), 50 to 150 nM.

Take `CC1(CNC(=O)COCCOCCNc2cccc3c2C(=O)N(C2CCC(=O)NC2=O)C3=O)CCC(c2ccc(Cl)cc2)=C(CN2CCN(c3ccc(C(=O)NS(=O)(=O)c4ccc(N[C@H](CCN5CCOCC5)CSc5ccccc5)c(S(=O)(=O)C(F)(F)F)c4)cc3)CC2)C1` (stereo partly drawn) [compound 77, 4-(4-((4′-chloro-4-((2-(2-(2-((2-(2,6-dioxopiperidin-3-yl)-1,3-dioxoisoindolin-4-yl)amino)ethoxy)ethoxy)acetamido)methyl)-4-methyl-3,4,5,6-tetrahydro-[1,1′-biphenyl]-2-yl)methyl)piperazin-1-yl)-N-((4-(((R)-4-morpholino-1-(phenylthio)butan-2-yl)amino)-3-((trifluoromethyl)sulfonyl)phenyl)sulfonyl)benzamide]: the IC50 in the experiment with MOLT-4 cells (Homo sapiens, MOLT-4, 48 h) is below 50 nM; with RS4;11 cells (Homo sapiens, RS4-11, 48 h), below 50 nM.

As for `Cc1ncsc1-c1ccc([C@H](C)NC(=O)[C@@H]2C[C@@H](O)CN2C(=O)[C@@H](NC(=O)CC2CCC(CC(=O)N3CCN(CC4(C)CCC(c5ccc(Cl)cc5)=C(CN5CCN(c6ccc(C(=O)NS(=O)(=O)c7ccc(N[C@H](CCN8CCOCC8)CSc8ccccc8)c(S(=O)(=O)C(F)(F)F)c7)cc6)CC5)C4)CC3)CC2)C(C)(C)C)cc1` (stereo partly shown) [degrader #40], the IC50 in the experiment with MOLT-4 cells (Homo sapiens, MOLT-4, 48 h) is below 50 nM; in the experiment on RS4;11 cells (Homo sapiens, RS4-11, 48 h) it was below 50 nM.

As for `Cc1ncsc1-c1ccc([C@H](C)NC(=O)[C@@H]2C[C@@H](O)CN2C(=O)[C@@H](NC(=O)CCCCCC(=O)N2CCCN(CC3(C)CCC(c4ccc(Cl)cc4)=C(CN4CCN(c5ccc(C(=O)NS(=O)(=O)c6ccc(N[C@H](CCN7CCOCC7)CSc7ccccc7)c(S(=O)(=O)C(F)(F)F)c6)cc5)CC4)C3)CC2)C(C)(C)C)cc1` (stereo partly drawn) [degrader #21, (2S,4R)-1-((2S)-2-(7-(4-((4′-chloro-4-methyl-6-((4-(4-(((4-(((R)-4-morpholino-1-(phenylthio)butan-2-yl)amino)-3-((trifluoromethyl)sulfonyl)phenyl)sulfonyl)carbamoyl)phenyl)piperazin-1-yl)methyl)-2,3,4,5-tetrahydro-[1,1′-biphenyl]-4-yl)methyl)-1,4-diazepan-1-yl)-7-oxoheptanamido)-3,3-dimethylbutanoyl)-4-hydroxy-N—((S)-1-(4-(4-methylthiazol-5-yl)phenyl)ethyl)pyrrolidine-2-carboxamide], the IC50 with MOLT-4 cells (Homo sapiens, MOLT-4, 48 h) was 50 to 150 nM; with RS4;11 cells (Homo sapiens, RS4-11, 48 h) it was below 50 nM.

For `Cc1ncsc1-c1ccc([C@H](C)NC(=O)[C@@H]2C[C@@H](O)CN2C(=O)[C@@H](NC(=O)COCCOCCOCCOCCOCC(=O)NCC2(C)CCC(c3ccc(Cl)cc3)=C(CN3CCN(c4ccc(C(=O)NS(=O)(=O)c5ccc(N[C@H](CCN6CCOCC6)CSc6ccccc6)c(S(=O)(=O)C(F)(F)F)c5)cc4)CC3)C2)C(C)(C)C)cc1` (stereo partly drawn) [degrader #10, N1-((4′-chloro-4-methyl-6-((4-(4-(((4-(((R)-4-morpholino-1-(phenylthio)butan-2-yl)amino)-3-((trifluoromethyl)sulfonyl)phenyl)sulfonyl)carbamoyl)phenyl)piperazin-1-yl)methyl)-2,3,4,5-tetrahydro-[1,1′-biphenyl]-4-yl)methyl)-N17-((S)-1-((2S,4R)-4-hydroxy-2-(((S)-1-(4-(4-methylthiazol-5-yl)phenyl)ethyl)carbamoyl)pyrrolidin-1-yl)-3,3-dimethyl-1-oxobutan-2-yl)-3,6,9,12,15-pentaoxaheptadecanediamide], the IC50 is above 500 nM in the experiment with MOLT-4 cells (Homo sapiens, MOLT-4, 48 h) and above 500 nM with RS4;11 cells (Homo sapiens, RS4-11, 48 h).

For the molecule `Cc1ncsc1-c1ccc([C@H](C)NC(=O)[C@@H]2C[C@@H](O)CN2C(=O)[C@@H](NC(=O)CCCCCCCC(=O)N[C@H]2CCCN(CC3(C)CCC(c4ccc(Cl)cc4)=C(CN4CCN(c5ccc(C(=O)NS(=O)(=O)c6ccc(N[C@H](CCN7CCOCC7)CSc7ccccc7)c(S(=O)(=O)C(F)(F)F)c6)cc5)CC4)C3)C2)C(C)(C)C)cc1` (stereo partly drawn) [degrader #48, N1-((3S)-1-((4′-chloro-4-methyl-6-((4-(4-(((4-(((R)-4-morpholino-1-(phenylthio)butan-2-yl)amino)-3-((trifluoromethyl)sulfonyl)phenyl)sulfonyl)carbamoyl)phenyl)piperazin-1-yl)methyl)-2,3,4,5-tetrahydro-[1,1′-biphenyl]-4-yl)methyl)piperidin-3-yl)-N9-((S)-1-((2S,4R)-4-hydroxy-2-(((S)-1-(4-(4-methylthiazol-5-yl)phenyl)ethyl)carbamoyl)pyrrolidin-1-yl)-3,3-dimethyl-1-oxobutan-2-yl)nonanediamide], the IC50 with MOLT-4 cells (Homo sapiens, MOLT-4, 48 h) is 50 to 150 nM; in the experiment on RS4;11 cells (Homo sapiens, RS4-11, 48 h), below 50 nM.

As for “(2S,4R)-1-((S)-2-(4-(4-(4-chlorophenyl)-5-((4-(4-(((4-(((R)-4-morpholino-1-(phenylthio)butan-2-yl)amino)-3-((trifluoromethyl)sulfonyl)phenyl)sulfonyl)carbamoyl)phenyl)piperazin-1-yl)methyl)-3,6-dihydropyridin-1(2H)-yl)-4-oxobutanamido)-3,3-dimethylbutanoyl)-4-hydroxy-N—((S)-1-(4-(4-methylthiazol-5-yl)phenyl)ethyl)pyrrolidine-2-carboxamide [Example 1]”, the half-maximal inhibitory concentration (IC50) in the experiment with MOLT-4 cells and with RS4;11 cells was 150 to 500 nM in each case.

Consider `Cc1ncsc1-c1ccc([C@H](C)NC(=O)[C@@H]2C[C@@H](O)CN2C(=O)[C@@H](NC(=O)CCCCCC(=O)N[C@H]2CCCN(CC3(C)CCC(c4ccc(Cl)cc4)=C(CN4CCN(c5ccc(C(=O)NS(=O)(=O)c6ccc(N[C@H](CCN7CCOCC7)CSc7ccccc7)c(S(=O)(=O)C(F)(F)F)c6)cc5)CC4)C3)C2)C(C)(C)C)cc1` (stereo partly drawn) [degrader #46, N1-((3S)-1-((4′-chloro-4-methyl-6-((4-(4-(((4-(((R)-4-morpholino-1-(phenylthio)butan-2-yl)amino)-3-((trifluoromethyl)sulfonyl)phenyl)sulfonyl)carbamoyl)phenyl)piperazin-1-yl)methyl)-2,3,4,5-tetrahydro-[1,1′-biphenyl]-4-yl)methyl)piperidin-3-yl)-N7-((S)-1-((2S,4R)-4-hydroxy-2-(((S)-1-(4-(4-methylthiazol-5-yl)phenyl)ethyl)carbamoyl)pyrrolidin-1-yl)-3,3-dimethyl-1-oxobutan-2-yl)heptanediamide], for which the IC50 was in the range of 150 to 500 nM with MOLT-4 cells (Homo sapiens, MOLT-4, 48 h) and 50 to 150 nM with RS4;11 cells (Homo sapiens, RS4-11, 48 h).

In the case of `Cc1ncsc1-c1ccc([C@H](C)NC(=O)[C@@H]2C[C@@H](O)CN2C(=O)[C@@H](NC(=O)CCCCCCCC(=O)NCCN(C)CC2(C)CCC(c3ccc(Cl)cc3)=C(CN3CCN(c4ccc(C(=O)NS(=O)(=O)c5ccc(N[C@H](CCN6CCOCC6)CSc6ccccc6)c(S(=O)(=O)C(F)(F)F)c5)cc4)CC3)C2)C(C)(C)C)cc1` (stereo partly shown) [compound 62], the IC50 in the experiment with MOLT-4 cells (Homo sapiens, MOLT-4, 48 h) was 150 to 500 nM; with RS4;11 cells (Homo sapiens, RS4-11, 48 h) it was below 50 nM.

On to `Cc1ncsc1-c1ccc([C@@H](C)NC(=O)[C@@H]2C[C@@H](O)CN2C(=O)[C@@H](NC(=O)CCCCCCCCCN2CCC(c3ccc(Cl)cc3)=C(CN3CCN(c4ccc(C(=O)NS(=O)(=O)c5ccc(N[C@H](CCN6CCOCC6)CSc6ccccc6)c(S(=O)(=O)C(F)(F)F)c5)cc4)CC3)C2)C(C)(C)C)cc1` [compound 88, (2S,4R)-1-((S)-2-(10-(4-(4-chlorophenyl)-5-((4-(4-(((4-(((R)-4-morpholino-1-(phenylthio)butan-2-yl)amino)-3-((trifluoromethyl)sulfonyl)phenyl)sulfonyl)carbamoyl)phenyl)piperazin-1-yl)methyl)-3,6-dihydropyridin-1(2H)-yl)decanamido)-3,3-dimethylbutanoyl)-4-hydroxy-N—((R)-1-(4-(4-methylthiazol-5-yl)phenyl)ethyl)pyrrolidine-2-carboxamide], for which the 50% inhibitory concentration (IC50) is 150 to 500 nM in the experiment on MOLT-4 cells (Homo sapiens, MOLT-4, 48 h) and above 500 nM in the experiment on RS4;11 cells (Homo sapiens, RS4-11, 48 h).

One may read the IC50 as the concentration that gives 50% inhibition.
